The nature of the series: Determination of stability in upper digestive tract and simulated colonic release (SGF, SIF, SCF; dialysis bag, UV 230 nm). In kind it is physicochemical. The settings on record: cumulative release after SGF and SIF. Here is the method:
6. Determination of Stability in Upper Digestive Tract and Simulated Colonic Release
A simulated gastric fluid (SGF, a pH of 1.2) consists of 2.95 g/L of sodium chloride and 8 ml/L of hydrochloric acid. A paclitaxel capsule (1 mg/ml of paclitaxel (dry weight)) is added to the SGF containing 3.2 g/L of pepsin and placed in a sealed dialysis bag (8,000-14,000 Da), then the dialysis bag is soaked in the SGF containing 3% (v/w) Tween-20 and stirred at 100 rpm at 37±0.5° C., and 2 ml of a release medium is withdrawn at 30 min, 60 min, 90 min, and 120 min respectively. An equal volume of the fresh SGF is added to maintain a volume after each sampling.
A pH value of the SGF system is adjusted to 6.8 with disodium hydrogen phosphate and a fresh porcine trypsin solution at 30 mg/mL is added into the dialysis bag to obtain a simulated intestinal fluid (SIF). 2 ml of a release medium is taken out at 30 min, 60 min, 90 min, and 120 min respectively and a concentration of paclitaxel is determined. An equal volume of the fresh release medium is added to maintain a volume after each sampling. […]
The concentration of paclitaxel is measured with an ultraviolet spectrophotometer at a wavelength of 230 nm.

Regarding `CC(=O)O[C@H]1C(=O)[C@@]2(C)[C@H]([C@H](OC(=O)c3ccccc3)[C@]3(O)C[C@H](OC(=O)[C@H](O)[C@@H](NC(=O)c4ccccc4)c4ccccc4)C(C)=C1C3(C)C)[C@]1(OC(C)=O)CO[C@@H]1C[C@@H]2O` [raw paclitaxel, paclitaxel], the “release amount (dissolution rate) in a stomach-small intestine” value is given as “about 25%”.

Values taken from patent US11771676B2, “Method for preparing high-load oral paclitaxel capsule for slow release in colon” (Jiangnan University, priority 2022, dated 2023).
